{
  "source": "patent US11473088B2",
  "about": "“Method of treating cancer and method of sensitizing cancer cells to the action of chemotherapeutic agents via growth hormone receptor antagonists or knock down” (Ohio University, priority 2016, dated 2022)",
  "key": {"MALME-3M cells": {"system": "MALME-3M cells", "assay": "RT-qPCR of RNA levels after hGH addition or GHR-KD", "assay_type": "cell-based, human", "conditions": "0, 5, 50 and 150 ng/mL hGH, 24 hr", "protocol": "(§1) For hGH treatment, 16 hours after seeding (or 24 hours post-transfection), the cells were serum-starved for 2 hours in serum-free growth media, and hGH (phosphate buffered saline was used as control where applicable) was added at the noted concentrations (0-, 5-, 50-, and 150 ng/ml). Cells were subsequently incubated for 24 hours before evaluating RNA levels. Recombinant hGH was purchased from Antibodies Online (#ABIN2017921, Atlanta, Ga.).\n(§2) Transfection was performed using siLentFect lipid reagent (Biorad #170-3360, Hercules, Calif.) following the manufacturer's protocol. […] Mock transfections were performed using universal scrambled negative control siRNA-duplex (Origene #SR30004). TYE-563-fluorescent labeled siRNA duplex (Origene #SR30002) was used as the transfection control. Cells were trypsinized, counted using a Countess Automated Cell Counter (Life Technologies, Carlsbad, Calif.), and seeded at 25,000-30,000 cells/cm^2, the cells being allowed to attach for 16-18 hours. The growth media was replaced with fresh antibiotic free complete growth medium just prior to transfection. […] Media was changed to complete growth medium plus antibiotics after 24 hours. RNA levels were analyzed 48 hours post-transfection, and protein levels were analyzed at 60 hours post-transfection.\n(§3) RNA extraction was performed using the IBI-Trizol based total RNA purification kit (MidSci #IB47632, St. Louis, Mo.), and reverse transcription was performed using Maxima First Strand cDNA synthesis kit (Thermo Fisher Scientific #K1642, Waltham, Mass.) following the manufacturers' protocols. Real time-quantitative PCR and melt curve analysis were performed using Maxima SYBR-Green qPCR master mix (Thermo Fisher Scientific #K0241) and a T100 thermal cycler (Biorad #1861096, Hercules, Calif.). RNA and DNA concentrations were estimated using a Nanodrop2000 (Thermo Fisher Scientific, Waltham, Mass.) spectrophotometer. Primers were obtained from Sigma-Aldrich for the following human genes, with primer efficiency being experimentally confirmed: GAPDH, b-Actin, GHR, GHRHR, SOCS2, IGF1, IGF1R, IGF2, IGF2R, PRL, PRLR, insulin (Ins), IR, IGFBP2, IGFBP3, EGFR, HGF, cMET and ERBB3. Each sample represented a pool of two replicates per experiment. Experiments were performed at least three times. Each qPCR for individual genes and every treatment for every cell type was performed in triplicates.\n(§4) And so—referring now to FIGS. 12A-12B, 17A-17C, 18A-18F, 19A-19F, and 20A-20F—RT-qPCR analysis of GH-IGF axis in human melanoma cells (FIGS. 12A-12B) and RT-qPCR analysis of GH-GHR and PRL-PRLR pairs in human melanoma cells (FIGS. 17A-17C) was performed. […] And, while not shown in FIGS. 12A and 12B, similar results for MALME-3M, MDA-MB-435 and SK-MEL-5 human melanoma cells are presented in FIGS. 13A-13L, 17A-17C, 18A-18F, 19A-19F, and 20A-20F. […] In all cases, exogenous hGH treatment was for 24 hr. RNA levels were normalized against expression of beta-actin and GAPDH as reference genes. […] Cells were grown in presence of 50 ng/mL exogenous GH and protein level changes were estimated 60 hr. post-transfection. [*, p<0.05, Students t test, n=3]. […] The percentage free area at the end time point was calculated using ImageJ software and reflected the decrease/inhibition in migration. […] [*, p<0.05, Students t-test, n=3]. In all cases, exogenous hGH treatment was for 24 hr. RNA levels were normalized against expression of β-actin and GAPDH as reference genes [*, p<0.05, Wilcoxon sign rank test, n=4]. […] In all cases, exogenous hGH treatment was for 24 hr. RNA levels were normalized against expression of β-actin and GAPDH as reference genes. [*, p<0.05, Wilcoxon sign rank test, n=4]"}, "MDA-MB-435 cells": {"system": "MDA-MB-435 cells", "assay": "RT-qPCR of RNA levels after hGH addition or GHR-KD", "assay_type": "cell-based, human", "protocol": "as §1, §2, §3, §4"}, "SK-MEL-28 cells": {"system": "SK-MEL-28 cells", "assay": "RT-qPCR of RNA levels after hGH addition or GHR-KD", "assay_type": "cell-based, human", "protocol": "as §1, §2, §3, §4"}, "human melanoma cells": {"system": "human melanoma cells", "assay": "RT-qPCR of RNA levels after hGH addition or GHR-KD", "assay_type": "cell-based", "protocol": "as §1, §2, §3\nAnd so—referring now to FIGS. 12A-12B, 17A-17C, 18A-18F, 19A-19F, and 20A-20F—RT-qPCR analysis of GH-IGF axis in human melanoma cells (FIGS. 12A-12B) and RT-qPCR analysis of GH-GHR and PRL-PRLR pairs in human melanoma cells (FIGS. 17A-17C) was performed. […] The percentage free area at the end time point was calculated using ImageJ software and reflected the decrease/inhibition in migration. […]"}, "SK-HEP-1 cells": {"system": "SK-HEP-1 cells", "assay": "RT-qPCR after GH / GHR-antagonist treatment", "assay_type": "cell-based, human", "conditions": "50 ng/mL GH, 3 days", "protocol": "Following treatments, cells were lysed, and RNA extraction was performed using IBI Tri-isolate kit (IBI), following manufacturer's protocol. RT-qPCR was performed as described previously.\nThe inventors had previously shown that knock-down of GHR in turn strongly attenuates MET as well as HGF transcript levels in human melanoma. To verify this observation in another GHR expressing human cancer like HCC, the inventors analyzed the effects of GH and GHR-antagonist treatment on the expression of the oncogenic HGF-MET loop in human liver cancer cells. HepG2 and SK-HEP-1 cells were treated for 3 days with either 50 ng/mL GH (2.5 nM), or 50 nM GHR-antagonist, or both, and their RNA expressions were compared against untreated controls at basal levels (i.e. no drug treatment). No additional effect of added GH on the expression levels of HGF or MET in the liver cancer cell lines was observed, except a 2-fold increase in MET levels in SK-HEP-1 cells (FIG. 39). […] Irrespective of presence of added GH, the antagonist lowered HGF levels by >4-fold in Hep-G2 cells and up to 2-fold in SK-HEP-1 cells; while the MET levels were decreased by >2-fold in both Hep-G2 and SK-HEP-1 cells compared to the GH treated samples (FIG. 39). […]"}, "[1]": {"conditions": "0, 5, 50 and 150 ng/mL hGH, 24 hr"}, "[2]": {"conditions": "SK-MEL-28 and MALME-3M, maximum GH concentrations"}},
  "data": [
    {"substance": "hGH: Recombinant human growth hormone, Antibodies Online #ABIN2017921", "values": [
      {"measurement": "RNA levels of TYRP1 with GH", "setting": "MALME-3M cells", "value": "dose-dependent increase"},
      {"measurement": "E-cadherin RNA levels with increasing GH", "setting": "MDA-MB-435 cells", "value": "decreased significantly"},
      {"measurement": "IGFBP2 RNA levels at high GH levels", "setting": "SK-MEL-28 cells", "value": "increase"},
      {"measurement": "N-cadherin RNA levels with increase of GH", "setting": "SK-MEL-28 cells", "value": "significant dose-dependent increase"},
      {"measurement": "vimentin RNA levels with increase of GH", "setting": "SK-MEL-28 cells", "value": "significant dose-dependent increase"},
      {"measurement": "RNA levels of MITF with GH", "setting": "SK-MEL-28 cells; [1]", "value": "dose dependent increase"},
      {"measurement": "RNA levels of TYRP1 with GH", "setting": "SK-MEL-28 cells; [1]", "value": "dose-dependent increase"},
      {"measurement": "level of decrease of some ABC-transporters in presence of GH", "setting": "human melanoma cells; 50 ng/mL GH, with anti-cancer drugs", "value": "~2", "unit": "fold"},
      {"measurement": "ERBB3 RNA levels", "setting": "human melanoma cells; GH stimulation or GHR-KD", "value": "upregulation"},
      {"measurement": "HGF expression level upregulated with added GH", "setting": "human melanoma cells; [2]", "value": "more than 2 fold"},
      {"measurement": "MET expression level upregulated with added GH", "setting": "human melanoma cells; [2]", "value": "more than 2 fold"},
      {"measurement": "increase in MET levels", "setting": "SK-HEP-1 cells", "value": 2, "unit": "fold"}
    ]}
  ]
}
